Each structure is given as a SMILES string.

The record followed here is article PMC6687188, “Novel lactate dehydrogenase inhibitors with in vivo efficacy against Cryptosporidium parvum” (PLoS Pathogens, 2019).

The assay addresses recombinant CpLDH protein (Cryptosporidium parvum, UniProt Q9GT92, F198L/K295E/R251K).
On to `CCSC(=O)N1c2ccc(OC)cc2C=CC1C#N` (centres unmarked) [NSC165897], for which the “MEAN CpLDH INHIBITION (%)” value is -41.74%.
As for `CC1=CC(=C(c2ccc(N)cc2)c2ccc(N)cc2)C=CC1=N.Cl` [NSC93739], the “MEAN CpLDH INHIBITION (%)” value is recorded as -24.21%.
For `C=C(C)C(=O)OC1CCC2(C)C(CCC3C2CCC2(C)C(c4ccc(=O)oc4)CC4OC432)C1` (centres unmarked) [NSC267712], the “MEAN CpLDH INHIBITION (%)” value is on record as -57.63%.
Consider `CN(C)c1ccc(/C=C2\CCc3ccccc3C2=O)cc1Br` [NSC643162], for which the “MEAN CpLDH INHIBITION (%)” value is listed as -31.17%.
As to `CCN(CC)CCOc1ccccc1/C=C/c1noc2ccccc12.Cl` [NSC601101], the “MEAN CpLDH INHIBITION (%)” value is given as -6.25%.
The value for `Cc1[nH]c(=O)nc(N/N=C/c2ccc(Cl)cc2)c1C(=O)Nc1ccc(Cl)cc1` [NSC624947] was -0.76%.
For `CCN(CC)c1ccc2cc3ccc(=[N+](CC)CC)cc-3oc2c1.[Cl-]` [NSC44690], the “MEAN CpLDH INHIBITION (%)” value is recorded as -28.19%.
To `COC(=O)c1c[nH]c2c1-c1cc(C(=O)OCc3ccccc3)n(S(=O)(=O)c3ccc(C)cc3)c1C(=O)C2=O` [NSC679524] belongs -184.78%; to `Cc1cc(Cl)ccc1N1C(=O)C(=O)C(c2nc3ccccc3o2)C(=O)C1=O` [NSC623051], -30.82%.
The value for `CO[C@H]1Nc2c(ccc(C)c2O)C(=O)N2C=C(/C=C/C(N)=O)C[C@@H]12` [NSC106408] was -29.99%; that for `COc1cc(C[C@H]2c3cc(OC)c(OC)cc3CCN2C)c(Oc2cc3c(cc2OC)-c2c(OC)c(OC)cc4c2[C@H](C3)N(C)CC4)cc1OC` [NSC68075] was -148.49%.
To `O=C(O)/C=C\C(=O)O.[N-]=[N+]=Nc1ccc2c(c1)Sc1ccccc1N2CCCCN1CCN(Cc2ccc(C(=O)c3ccccc3)cc2)CC1` [NSC676963] belongs -97.54%.
Turning to `C/C(NNC(=O)c1ccccc1O)=C1\C=Nc2ccccc2S1` [NSC635121], the “MEAN CpLDH INHIBITION (%)” value turned out to be 0.03%.
In the case of `CCn1c(O)c(C=Nc2ccccc2)s/c1=N/Nc1ncc(CC(=O)Nc2ccccc2C)s1` [NSC658350], the “MEAN CpLDH INHIBITION (%)” value was -19.59%.
To `CC(=O)N=C1N(/C=C2\C(=O)Oc3ccccc3C2=O)C(=O)/C(=C/c2ccccc2Cl)N1C` [NSC658494] belongs -56.68%.
`COC(=O)C1(C)CCCC2(C)C3CCC4CC3(C=C4CO)CCC12` (centres unmarked) [NSC360861]: the “MEAN CpLDH INHIBITION (%)” value is recorded as -29.11%.
To `CC(=O)c1sc2c(c1OC(=O)c1ccc(Cl)cc1Cl)c(=O)n(-c1ccccc1)c(=S)n2-c1ccccc1` [NSC671136] belongs -17.97%; to `C=C1C(=O)OC2CC1C(OC(C)=O)C/C(C)=C/CC/C(C)=C\CCC2(C)O` (centres unmarked) [NSC36437], -19.06%; to `O=[N+]([O-])c1ccccc1S(=O)(=O)c1ccccc1[N+](=O)[O-]` [NSC633001], -15.73%.
The value for `COC(=O)NC1C(C)OC(OC2C/C=C(/C)C3C=CC4C(OC5CC(OC6CCC(OC7CC(O)C(OC8CCC(O)C(C)O8)C(C)O7)C(C)O6)C(OC(C)=O)C(C)O5)C(C)CC(C)C4C3(C)/C(O)=C3/C(=O)OC4(CC(C=O)=CC(O)C4/C=C\2C)C3=O)CC1(C)[N+](=O)[O-]` (centres unmarked) [NSC333856] was -2.71%.
To `C[n+]1ccc(Nc2ccc(NC(=O)c3ccc(Nc4cc[n+](C)c5ccc([N+](=O)[O-])cc45)cc3[N+](=O)[O-])cc2)cc1.Cl` [NSC218439] belongs -11.45%; to `Cc1ccc2[c](c1)[Sn]([c]1ccccc1)([c]1ccccc1)[c]1cc(C)ccc1N2C` [NSC118030], -56.74%; to `COc1ccc(O)c2c(=O)c3c(OC)cc4c(c3oc12)[C@@H]1C=CO[C@@H]1O4` [NSC178249], -31.06%.
As to `Cc1ccccc1OCC(COC(=O)Nc1ccccc1)OC(=O)Nc1ccccc1` (centres unmarked) [NSC635824], the “MEAN CpLDH INHIBITION (%)” value is reported as -3.02%.
`Cn1cnc([N+](=O)[O-])c1Sc1nnnn1-c1ccccc1` [NSC631152]: the “MEAN CpLDH INHIBITION (%)” value is on record as -45.89%.
Take `CC(=O)[O-].Cc1c2cc[n+](CCN3CCCCC3)cc2c(C)c2c1[nH]c1ccc(O)cc12` [NSC311153]: the “MEAN CpLDH INHIBITION (%)” value is -30.69%.
The value for `COc1cc(OC)c2c(C)cc(=O)oc2c1` [NSC688795] was -40.28%; that for `Cc1ccc(S(=O)(=O)N2CCSCCSCCSCCSCC2)cc1` [NSC650792] was -46.61%.
The value for `CC1CCCC(C(=O)/C(=C/c2cccc(Cl)c2)C(=O)C(=O)O)C1` (centres unmarked) [NSC636084] was -20.56%; that for `O=C1C=C(N2CCNCC2)C(=O)c2c(O)ccc(O)c21` [NSC658144] was -3.51%; that for `O=C1c2ccccc2C(=O)c2sc(Nc3ccc(Cl)cc3)nc21` [NSC631529] was -18.60%.
The value for `O=C1c2ccccc2C(=O)c2nc(-c3ccccc3)c(-c3ccccc3)nc21` [NSC629713] was -5.77%; that for `Cc1cccc(NC(=O)/C=C/c2ccc([N+](=O)[O-])cc2)c1` [NSC139109] was -11.32%; that for `Cc1nnc(-n2c(O)cc(=O)n(-c3ccccc3)c2=S)nc1/C=C/c1ccc(N(C)C)cc1` [NSC698031] was -6.31%.
As to `BrC(/C=N/Nc1nnc(-c2ccccc2)c(-c2ccccc2)n1)C(Br)c1ccccc1` (centres unmarked) [NSC640638], the “MEAN CpLDH INHIBITION (%)” value is -14.60%.
To `CC[C@@]1(O)C[C@H](O[C@H]2C[C@H](N(C)C)[C@H](O)[C@H](C)O2)c2c(cc3c(c2O)C(=O)c2c(O)ccc(O)c2C3=O)[C@H]1C(=O)OC` [NSC267229] belongs -179.02%.
For `O=S(=O)(O)SC/C=C\CSS(=O)(=O)O.[Na+]` [NSC624161], the “MEAN CpLDH INHIBITION (%)” value was -27.85%.
For the compound `O=C1C=C(Nc2ccccc2C(=O)CC(=O)C(=O)Nc2ccc(Cl)cc2)c2ccccc2C1=O` [NSC641253], the “MEAN CpLDH INHIBITION (%)” value is listed as -12.80%.
To `COC(=O)[C@@H]1[C@H](O)[C@H](C)[C@H](O)[C@H](C)/C=C\C=C(/C)C(=O)Nc2c(C)c(OC(C)=O)c3c(c2O)C(=O)C(C)=C2OCOC(=C23)/C(C)=C/[C@@](C)(O)[C@H](O)[C@@H](C)[C@H]1OC(C)=O` [NSC156215] belongs -35.58%; to `CCC(C#N)(c1ccccc1)N(CCc1ccccc1)C(=O)c1ccccc1` (centres unmarked) [NSC681741], -7.66%; to `COc1ccc(/C=C/c2cc(O)cc(O[C@@H]3O[C@H](CO)[C@@H](O)[C@H](O)[C@H]3O)c2)cc1O` [NSC43321], -58.94%.
Consider `C=C1C(=O)C23CC[C@@H]4C(C)(C(=O)OC)CCCC4(C)[C@@H]2CCC1(O)C3` (some centres unmarked) [NSC620358], for which the “MEAN CpLDH INHIBITION (%)” value is -24.86%.
For `O=C1N[C@@H]2C(=C[C@H](O)[C@@H](O)[C@H]2O)c2cc3c(cc21)OCO3` [NSC349155], the “MEAN CpLDH INHIBITION (%)” value is reported as -5.62%.
To `C[C@H]1CCC/C=C/[C@@H]2C[C@H](O)C[C@H]2[C@H](O)/C=C/C(=O)O1` [NSC89671] belongs -22.45%; to `COC(=O)C[S+]([O-])c1ccccc1` (centres unmarked) [NSC620050], -37.27%.
The value for `O=C1Oc2ccccc2C(=O)/C1=C1\C=C(c2ccccc2)SS1` [NSC293927] was -15.46%.
In the case of `Cc1cc2c(cc1C)[n+](=O)c(C(=O)/C=C/c1ccccc1[N+](=O)[O-])c(C)n2[O-]` [NSC621486], the “MEAN CpLDH INHIBITION (%)” value is recorded as -0.42%.
To `Br.CN(C)c1nc(=NCc2ccco2)ss1` [NSC622608] belongs -22.44%; to `CC(C)(C)OC(=O)NC(Cc1ccccc1)C(=O)OCN1C(=O)C2C3C=CC(C2C1=O)C1C2C(=O)N(COC(=O)C(Cc4ccccc4)NC(=O)OC(C)(C)C)C(=O)C2C31` (centres unmarked) [NSC607316], -7.22%; to `CC(C)[Si]1(C(C)C)OCC2OC(n3cnc4c(N)ncnc43)C(N)C2O[Si](C(C)C)(C(C)C)O1` (centres unmarked) [NSC687330], -17.98%.
To `C=C1C(=O)OC2C1CC1OC2C(C)CCC/C(C)=C\CCC1(C)O` (centres unmarked) [NSC282752] belongs -63.64%.
For the compound `Cc1ccc(CC2(OCCN(C)C)CCC(C(C)(C)C)CC2)cc1.O=C(O)/C=C/C(=O)O` (centres unmarked) [NSC670225], the “MEAN CpLDH INHIBITION (%)” value was -54.38%.
The value for `C=C1[C@@H](C)[C@H]2[C@H](Cc3ccccc3)NC(=O)C23[C@H](OC(C)=O)/C=C/[C@@](C)(O)C[C@@H](C)C/C=C/[C@H]3[C@@H]1O` (some centres unmarked) [NSC305222] was -217.96%.
To `Cc1ccc(Nc2nc(C)c(C(/C=C/c3ccc(/C=C/C(=N\NC(=O)C[n+]4ccccc4)c4sc(Nc5ccc(C)cc5[N+](=O)[O-])nc4C)cc3)=N/NC(=O)C[n+]3ccccc3)s2)c([N+](=O)[O-])c1.Cl` [NSC640342] belongs -89.53%.
For `CC1=C/C(=C2/N=C(N(C)C)SS2)C(C)=N1.[O-][Cl+3]([O-])([O-])O` [NSC622690], the “MEAN CpLDH INHIBITION (%)” value is -0.50%.
For `CC1(C)NC(=O)N(CCCCCCN2C(=O)NC(C)(C)C2=O)C1=O` [NSC376791], the “MEAN CpLDH INHIBITION (%)” value is -26.30%.
To `NP(=O)(Oc1c2occc2cc2ccc(=O)oc12)N(CCCl)CCCl` (centres unmarked) [NSC345081] belongs -64.34%.
As for `O=C1OC(c2ccco2)=N/C1=C\c1ccc(Cl)c(Cl)c1` [NSC202000], the “MEAN CpLDH INHIBITION (%)” value was -23.71%.
For `Cc1ccc([N+](=O)[O-])cc1NC(=O)c1cccc([N+](=O)[O-])c1O` [NSC79451], the “MEAN CpLDH INHIBITION (%)” value is reported as -40.98%.
Regarding `COc1ccc2c(c1[N+](=O)[O-])CC[C@@H]1[C@@H]2CC[C@]2(C)C(=O)CC[C@@H]12` [NSC321803], the “MEAN CpLDH INHIBITION (%)” value is -29.51%.
To `CN=c1sc2c(n1C)C(=O)c1ccccc1C2=O` [NSC659501] belongs -27.66%.
The value for `COC(=O)c1[nH]c(=S)[nH]c(=O)c1-c1ccc(Cl)cc1` [NSC635140] was -15.60%; that for `OCC1OC(n2cnc3c(SCc4ccccc4)ncnc32)C(O)C1O` (centres unmarked) [NSC26273] was -4.046%.
To `CCOC(=O)/C=C/c1c(C)[nH]c(=O)[nH]c1=O` [NSC159935] belongs -51.31%; to `N=C1C=C(N)C(=O)c2[nH]c(=O)ccc21` [NSC111041], -37.64%.
